Experimental data from patent publication US20260209301A1, “Galanin-2 Receptor Agonists” (LIFEARC, priority 2022, published 2026).

Assays:
[1] = tested on: mouse CFA model of inflammatory pain; assay: CFA-induced inflammatory pain model, weight bearing; type: in vivo
From the text: Intraplantar injection of Complete Freunds adjuvant (CFA) causes an inflammatory reaction which induces hypersensitivity and oedema and mimics some aspects of clinical inflammatory pain. These effects can be investigated using equipment to measure the […]. Naive mice distribute their body weight equally between the two hind paws. When the injected hind paw is inflamed and/or painful, the weight is re-distributed so that less weight is put on the affected paw (decrease in weight bearing on injured paw). Weight bearing through each hind limb is measured using an incapacitance tester (Linton Instruments, UK).
Environmental conditions: Animals were housed in standard caging and laboratory conditions in groups of 2-5, with free access to food (5CR4, Purina) and water (except during placement in the incapacitance box) on a 12/12 light/dark cycle. […] Weight bearing: Mice were placed in the incapacitance tester with the hind paws on separate sensors and the average force exerted by both hind limbs was recorded over 2 seconds. […] Prior to test compound treatment, weight bearing readings were taken to assess baseline hypersensitivity 23 hours post-CFA. […] Weight bearing was then assessed at 4, 24, 48 and 72 hours post-test compound treatment.
Weight bearing (g) readings were taken for both right and left hind paws and the difference calculated. […]

rat GalR2 = target: T1, rat GalR2 (Rattus norvegicus, UniProt O08726); assay: Calcium assay at orthologue receptor; type: cell-based; settings: Table 8; Calcium assays; mean +/− standard deviation
T1 sequence (O08726 1-372): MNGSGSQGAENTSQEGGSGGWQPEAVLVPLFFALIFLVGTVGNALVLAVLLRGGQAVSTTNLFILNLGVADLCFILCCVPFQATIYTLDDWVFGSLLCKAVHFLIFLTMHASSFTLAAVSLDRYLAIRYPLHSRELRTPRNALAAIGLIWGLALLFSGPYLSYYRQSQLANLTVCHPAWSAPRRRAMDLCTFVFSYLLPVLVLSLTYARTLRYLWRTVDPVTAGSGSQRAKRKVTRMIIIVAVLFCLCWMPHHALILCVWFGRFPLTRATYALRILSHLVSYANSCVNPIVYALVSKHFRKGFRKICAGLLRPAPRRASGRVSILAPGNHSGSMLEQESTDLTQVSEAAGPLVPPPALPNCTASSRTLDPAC
From the text: These species were chosen as they represent potential downstream in vivo models to be used. […] Calcium imaging was used to define receptor activity.

Gal2-13FC: galanin 2-13, AEAAAKEAAAKA linker, human IgG1 FC; SEQ ID NO: 7
MED, reversal of hyperalgesia induced by CFA [1]: ≤ 1 mg/kg i.p. | duration of reversal of hyperalgesia induced by CFA [1]: ≥ 72 h | Rat GalR2 activity (rat GalR2): 6.5 +/− 0.1
